Experimental data taken from PubChem BioAssay AID248 (DTP/NCI, 2004).
“And” between values parts separate entries of the source, which are not always exact repeats. Equal values may be shown once. Inconclusive results and toxic doses are left out. Cut-off read from the data, not from the text of the source: active = T/C of 150% or more; inactive = T/C below 125%.

Test system: L1210 leukemia ip in BDF1 mice, survival T/C
Assay: NCI In Vivo Anticancer Drug Screen. Data for tumor model L1210 Leukemia (intraperitoneal) in B6D2F1 (BDF1) mice
Settings: endpoint: mean survival time, higher = longer survival
Procedure, shortened: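 Survival endpoint. Drug-treated group vs vehicle group, expressed as T divided by C. Tumor passaged by transplantation.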

[1] = dose: 100.0 mg/kg/injection, schedule: Q01DX009 (ip), vehicle: saline with Tween-80
[2] = dose: 100.0 mg/kg/injection, schedule: Q04DX003 (ip), vehicle: saline with Tween-80
[3] = dose: 200.0 mg/kg/injection, schedule: Q01DX009 (ip), vehicle: saline with Tween-80
[4] = dose: 200.0 mg/kg/injection, schedule: Q04DX003 (ip), vehicle: saline with Tween-80
[5] = dose: 400.0 mg/kg/injection, schedule: Q01DX009 (ip), vehicle: saline with Tween-80
[6] = dose: 100.0 mg/kg/injection, schedule: Q01DX001 (ip), vehicle: carboxymethylcellulose (CMC)
[7] = dose: 200.0 mg/kg/injection, schedule: Q01DX001 (ip), vehicle: carboxymethylcellulose (CMC)
[8] = dose: 100.0 mg/kg/injection, schedule: Q01DX001 (ip), vehicle: Klucel (hydroxypropylcellulose) (HPC)
[9] = dose: 100.0 mg/kg/injection, schedule: Q04DX003 (ip), vehicle: Klucel (hydroxypropylcellulose) (HPC)
[10] = dose: 200.0 mg/kg/injection, schedule: Q01DX001 (ip), vehicle: Klucel (hydroxypropylcellulose) (HPC)
[11] = dose: 200.0 mg/kg/injection, schedule: Q04DX003 (ip), vehicle: Klucel (hydroxypropylcellulose) (HPC)
[12] = dose: 400.0 mg/kg/injection, schedule: Q01DX001 (ip), vehicle: Klucel (hydroxypropylcellulose) (HPC)
[13] = dose: 400.0 mg/kg/injection, schedule: Q04DX003 (ip), vehicle: Klucel (hydroxypropylcellulose) (HPC)

Measured: T/C

O=C(NC1CCCCC1)N(O)C12CC3CC(CC(C3)C1)C2
inactive: dose: 100.0 mg/kg/injection, schedule: Q01DX001 (ip), vehicle: saline with Tween-80 108 % of control | dose: 200.0 mg/kg/injection, schedule: Q01DX001 (ip), vehicle: saline with Tween-80 92 % of control | dose: 400.0 mg/kg/injection, schedule: Q01DX001 (ip), vehicle: saline with Tween-80 95 % of control

CCCC[P+](CCCC)(CCCC)Cc1ccccc1
inactive: dose: 5.0 mg/kg/injection, schedule: Q01DX001 (ip), vehicle: saline 100 % of control | dose: 10.0 mg/kg/injection, schedule: Q01DX001 (ip), vehicle: saline 119 % of control | dose: 12.5 mg/kg/injection, schedule: Q04DX003 (ip), vehicle: Klucel (hydroxypropylcellulose) (HPC) 104 % of control | dose: 20.0 mg/kg/injection, schedule: Q01DX001 (ip), vehicle: saline 98 % of control | dose: 25.0 mg/kg/injection, schedule: Q04DX003 (ip), vehicle: Klucel (hydroxypropylcellulose) (HPC) 104 % of control | dose: 40.0 mg/kg/injection, schedule: Q01DX001 (ip), vehicle: saline 96 % of control

CCOC(=O)CSC
inactive: [1] 99 % of control | [2] 101 % of control | [3] 94 % of control | [4] 106 % of control | [5] 100 % of control | dose: 400.0 mg/kg/injection, schedule: Q04DX003 (ip), vehicle: saline with Tween-80 98 % of control

COc1ccc(CN2CCCN(Cc3ccc(OC)cc3OC)C2c2ccncc2)c(OC)c1
inactive: dose: 50.0 mg/kg/injection, schedule: Q01DX001 (ip), vehicle: saline 94 % of control | dose: 100.0 mg/kg/injection, schedule: Q01DX001 (ip), vehicle: saline 97 % of control | dose: 200.0 mg/kg/injection, schedule: Q01DX001 (ip), vehicle: saline 105 % of control | dose: 400.0 mg/kg/injection, schedule: Q01DX001 (ip), vehicle: saline 103 % of control

CC(=O)OC1CC2CC(C1)C(C#N)C(=O)NC(=O)C2C#N (configuration not stated)
inactive: [6] 102 % of control | [7] 96 % of control | dose: 400.0 mg/kg/injection, schedule: Q01DX001 (ip), vehicle: carboxymethylcellulose (CMC) 92 % of control

CC(C)NC(=O)c1ccccc1
inactive: [8] 96 % of control | [9] 96 % of control | [10] 98 % of control | [11] 103 % of control | [12] 101 % of control | [13] 101 % of control

CC(C)CC(NC(=O)c1ccccc1)C(=O)O (configuration not stated)
inactive: [3] 88 % of control | dose: 264.0 mg/kg/injection, schedule: Q01DX009 (ip), vehicle: saline with Tween-80 97 % of control | dose: 600.0 mg/kg/injection, schedule: Q01DX009 (ip), vehicle: saline with Tween-80 92 % of control

O=C(Cl)C(c1ccccc1)C1(C(Cl)(Cl)Cl)CCCCC1 (configuration not stated)
inactive: dose: 55.0 mg/kg/injection, schedule: Q01DX Z (ip), vehicle: methylcellulose (MC) 110 % of control | dose: 83.0 mg/kg/injection, schedule: Q01DX Z (ip), vehicle: methylcellulose (MC) 104 % of control | dose: 125.0 mg/kg/injection, schedule: Q01DX Z (ip), vehicle: methylcellulose (MC) 98 % of control

CC(O)(c1ccncc1)c1cc2ccccc2n1S(=O)(=O)c1ccccc1 (configuration not stated)
inactive: dose: 100.0 mg/kg/injection, schedule: Q04DX002 (ip), vehicle: Klucel (hydroxypropylcellulose) (HPC) 95 % of control | dose: 200.0 mg/kg/injection, schedule: Q04DX002 (ip), vehicle: Klucel (hydroxypropylcellulose) (HPC) 87 % of control

Cc1c2cc[nH]c(C(F)(F)F)c2cc2c1nc1ccccc12
inactive: dose: 16.0 mg/kg/injection, schedule: Q01DX005 (ip), vehicle: saline 101 % of control | dose: 32.0 mg/kg/injection, schedule: Q01DX005 (ip), vehicle: saline 103 % of control | dose: 64.0 mg/kg/injection, schedule: Q01DX005 (ip), vehicle: saline 103 % of control | dose: 128.0 mg/kg/injection, schedule: Q01DX005 (ip), vehicle: saline 103 % of control

CC(C)C(=O)Nc1cccc(Cl)c1
inactive: [1] 95 % of control | [3] 95 % of control | [5] 101 % of control

Cc1cc2c(cn1)C(=O)C=CC2=O
inactive: dose: 5.0 mg/kg/injection, schedule: Q01DX001 (ip), vehicle: carboxymethylcellulose (CMC) 94 % of control | dose: 10.0 mg/kg/injection, schedule: Q01DX001 (ip), vehicle: carboxymethylcellulose (CMC) 96 % of control

COC(=O)C1OC(n2cnc3c(N)ncnc32)C(O)C1O (configuration not stated)
inactive: dose: 100.0 mg/kg/injection, schedule: Q01DX005 (ip), vehicle: saline 101 % of control | dose: 200.0 mg/kg/injection, schedule: Q01DX005 (ip), vehicle: saline 101 % of control

CC(CC(=O)c1ccc(F)cc1)N1CCCCC1 (configuration not stated)
inactive: [6] 95 % of control | [7] 98 % of control

CC(=O)N=C(N)N(/N=C(C)\C=N\N(C(C)=O)C(N)=NC(C)=O)C(C)=O
inactive: dose: 15.0 mg/kg/injection, schedule: Q01DX Z (ip), vehicle: carboxymethylcellulose (CMC) 96 % of control | dose: 30.0 mg/kg/injection, schedule: Q01DX Z (ip), vehicle: carboxymethylcellulose (CMC) 96 % of control | dose: 60.0 mg/kg/injection, schedule: Q01DX Z (ip), vehicle: carboxymethylcellulose (CMC) 93 % of control and 91 % of control | dose: 120.0 mg/kg/injection, schedule: Q01DX Z (ip), vehicle: carboxymethylcellulose (CMC) 97 % of control and 90 % of control | dose: 240.0 mg/kg/injection, schedule: Q01DX Z (ip), vehicle: carboxymethylcellulose (CMC) 92 % of control | dose: 480.0 mg/kg/injection, schedule: Q01DX Z (ip), vehicle: carboxymethylcellulose (CMC) 94 % of control

COC(=O)C1C2CC/C=C\CCC21 (configuration not stated)
inactive: dose: 100.0 mg/kg/injection, schedule: Q01DX009 (ip), vehicle: Klucel (hydroxypropylcellulose) (HPC) 91 % of control | dose: 200.0 mg/kg/injection, schedule: Q01DX009 (ip), vehicle: Klucel (hydroxypropylcellulose) (HPC) 87 % of control | dose: 400.0 mg/kg/injection, schedule: Q01DX009 (ip), vehicle: Klucel (hydroxypropylcellulose) (HPC) 91 % of control

Cc1cc(C)c(S(=O)(=O)C(=O)C(=O)NN)c(C)c1
inactive: [8] 104 % of control | [9] 115 % of control | [10] 106 % of control | [11] 109 % of control | [12] 106 % of control | [13] 104 % of control

Cn1c2ccccc2c2nn3cnnc3nc21
inactive: dose: 100.0 mg/kg/injection, schedule: Q04DX002 (ip), vehicle: saline with Tween-80 108 % of control | dose: 200.0 mg/kg/injection, schedule: Q04DX002 (ip), vehicle: saline with Tween-80 120 % of control

Clc1ccc2c(Cl)cc(Cl)nc2c1
inactive: dose: 75.0 mg/kg/injection, schedule: Q01DX001 (ip), vehicle: saline 92 % of control | dose: 300.0 mg/kg/injection, schedule: Q01DX001 (ip), vehicle: saline 87 % of control

COc1cc(OCc2ccccc2)c(CC(=O)O)c([N+](=O)[O-])c1
inactive: dose: 100.0 mg/kg/injection, schedule: Q01DX001 (ip), vehicle: other 104 % of control | dose: 100.0 mg/kg/injection, schedule: Q01DX009 (ip), vehicle: other 93 % of control | dose: 100.0 mg/kg/injection, schedule: Q04DX003 (ip), vehicle: other 100 % of control | dose: 200.0 mg/kg/injection, schedule: Q01DX001 (ip), vehicle: other 100 % of control | dose: 200.0 mg/kg/injection, schedule: Q01DX009 (ip), vehicle: other 106 % of control | dose: 200.0 mg/kg/injection, schedule: Q04DX003 (ip), vehicle: other 94 % of control | dose: 400.0 mg/kg/injection, schedule: Q01DX001 (ip), vehicle: other 94 % of control | dose: 400.0 mg/kg/injection, schedule: Q01DX009 (ip), vehicle: other 103 % of control | dose: 400.0 mg/kg/injection, schedule: Q04DX003 (ip), vehicle: other 94 % of control

OCCOc1c(Cl)c(Cl)c(Cl)c(Cl)c1Cl
inactive: dose: 50.0 mg/kg/injection, schedule: Q01DX009 (ip), vehicle: saline with Tween-80 101 % of control | [1] 94 % of control | [2] 102 % of control | [3] 103 % of control | [4] 97 % of control
